Numbers after ± are expanded uncertainties.
How the values were obtained:
[1] = mn = molality of the nth substance listed, in mol/kg; conditions: 298.15 K, 101 kPa, Liquid
[2] = refractive index (Na D-line) (dimensionless); mn = molality of the nth substance listed, in mol/kg; conditions: 298.15 K, 101 kPa, Liquid
[3] = cn = amount concentration of the nth substance listed, in mol/dm3; conditions: 298.15 K, 101 kPa, Liquid; for molar conductivity: Alternating current cell with electrodes; for viscosity: Capillary tube (Ostwald / Ubbelohde) method

SMILES: CCCCn1cc[n+](C)c1.[Br-] [1-butyl-3-methylimidazolium bromide] + O
- mass density ([1]; m1 = 0.0909): 1001.54 ± 1 kg/m3
- mass density ([1]; m1 = 0.0915): 1001.77 ± 1 kg/m3
- mass density ([1]; m1 = 0.097): 1001.97 ± 1 kg/m3
- mass density ([1]; m1 = 0.1797): 1005.97 ± 1.1 kg/m3
- mass density ([1]; m1 = 0.1833): 1006.34 ± 1.1 kg/m3
- mass density ([1]; m1 = 0.185): 1006.46 ± 1.1 kg/m3
- mass density ([1]; m1 = 0.267): 1010.2 ± 1.1 kg/m3
- mass density ([1]; m1 = 0.2863): 1011.4 ± 1.1 kg/m3
- mass density ([1]; m1 = 0.2866): 1011.29 ± 1.1 kg/m3
- mass density ([1]; m1 = 0.3496): 1014.39 ± 1.2 kg/m3
- mass density ([1]; m1 = 0.3564): 1014.36 ± 1.2 kg/m3
- mass density ([1]; m1 = 0.3651): 1014.07 ± 1.2 kg/m3
- refractive index ([2]; m1 = 0.0909): 1.3357 ± 0.0006
- refractive index ([2]; m1 = 0.0915): 1.3359 ± 0.0006
- refractive index ([2]; m1 = 0.097): 1.336 ± 0.0006
- refractive index ([2]; m1 = 0.1797): 1.3382 ± 0.0006
- refractive index ([2]; m1 = 0.1833): 1.3388 ± 0.0006
- refractive index ([2]; m1 = 0.185): 1.339 ± 0.0006
- refractive index ([2]; m1 = 0.267): 1.3407 ± 0.0006
- refractive index ([2]; m1 = 0.2863): 1.3416 ± 0.0006
- refractive index ([2]; m1 = 0.2866): 1.3414 ± 0.0006
- refractive index ([2]; m1 = 0.3496): 1.343 ± 0.0006
- refractive index ([2]; m1 = 0.3564): 1.3433 ± 0.0006
- refractive index ([2]; m1 = 0.3651): 1.3437 ± 0.0006

SMILES: NCC(=O)O [2-aminoacetic acid] + O
- mass density ([1]; m1 = 0.0521): 998.7 ± 0.17 kg/m3
- mass density ([1]; m1 = 0.0997): 1000.21 ± 0.17 kg/m3
- mass density ([1]; m1 = 0.1577): 1002.02 ± 0.17 kg/m3
- mass density ([1]; m1 = 0.1992): 1003.32 ± 0.17 kg/m3
- mass density ([1]; m1 = 0.2235): 1004.07 ± 0.18 kg/m3
- mass density ([1]; m1 = 0.2902): 1006.11 ± 0.18 kg/m3
- mass density ([1]; m1 = 0.3266): 1007.22 ± 0.18 kg/m3
- mass density ([1]; m1 = 0.4495): 1010.93 ± 0.19 kg/m3
- mass density ([1]; m1 = 0.5179): 1012.94 ± 0.19 kg/m3
- refractive index ([2]; Standard Abbe refractometry, m1 = 0.0941): 1.3333 ± 0.0004
- refractive index ([2]; Standard Abbe refractometry, m1 = 0.1492): 1.3339 ± 0.0004
- refractive index ([2]; Standard Abbe refractometry, m1 = 0.1972): 1.3345 ± 0.0004
- refractive index ([2]; Standard Abbe refractometry, m1 = 0.2611): 1.3354 ± 0.0004
- refractive index ([2]; Standard Abbe refractometry, m1 = 0.2975): 1.3359 ± 0.0004
- refractive index ([2]; Standard Abbe refractometry, m1 = 0.303): 1.336 ± 0.0004
- refractive index ([2]; Standard Abbe refractometry, m1 = 0.3935): 1.337 ± 0.0004
- refractive index ([2]; Standard Abbe refractometry, m1 = 0.4408): 1.3376 ± 0.0004
- molar conductivity ([3]; c1 = 0.0007166): 0.0153 ± 0.00031 S·m2/mol
- molar conductivity ([3]; c1 = 0.001486): 0.0148 ± 0.0003 S·m2/mol
- molar conductivity ([3]; c1 = 0.002275): 0.0146 ± 0.00029 S·m2/mol
- molar conductivity ([3]; c1 = 0.003892): 0.0145 ± 0.00029 S·m2/mol
- molar conductivity ([3]; c1 = 0.00566): 0.0142 ± 0.00028 S·m2/mol
- molar conductivity ([3]; c1 = 0.007383): 0.0139 ± 0.00028 S·m2/mol
- molar conductivity ([3]; c1 = 0.00904): 0.0137 ± 0.00028 S·m2/mol
- molar conductivity ([3]; c1 = 0.0116): 0.0135 ± 0.00027 S·m2/mol
- molar conductivity ([3]; c1 = 0.01431): 0.0132 ± 0.00026 S·m2/mol
- molar conductivity ([3]; c1 = 0.01747): 0.0129 ± 0.00026 S·m2/mol
- molar conductivity ([3]; c1 = 0.02104): 0.0126 ± 0.00025 S·m2/mol
- molar conductivity ([3]; c1 = 0.02475): 0.0123 ± 0.00025 S·m2/mol
- viscosity ([3]; c1 = 0.052): 0.881 ± 0.04 mPa·s
- viscosity ([3]; c1 = 0.0997): 0.892 ± 0.04 mPa·s
- viscosity ([3]; c1 = 0.158): 0.91 ± 0.04 mPa·s
- viscosity ([3]; c1 = 0.1999): 0.92 ± 0.04 mPa·s
- viscosity ([3]; c1 = 0.2244): 0.929 ± 0.04 mPa·s
- viscosity ([3]; c1 = 0.292): 0.939 ± 0.04 mPa·s
- viscosity ([3]; c1 = 0.3289): 0.945 ± 0.04 mPa·s
- viscosity ([3]; c1 = 0.4544): 0.965 ± 0.04 mPa·s
- viscosity ([3]; c1 = 0.5246): 0.98 ± 0.04 mPa·s

SMILES: C[C@H](N)C(=O)O [(S)-2-aminopropanoic acid] + O
- mass density ([1]; m1 = 0.0499): 998.55 ± 0.22 kg/m3
- mass density ([1]; m1 = 0.0849): 999.6 ± 0.22 kg/m3
- mass density ([1]; m1 = 0.1397): 1001.23 ± 0.22 kg/m3
- mass density ([1]; m1 = 0.1784): 1002.37 ± 0.23 kg/m3
- mass density ([1]; m1 = 0.2346): 1004.02 ± 0.23 kg/m3
- mass density ([1]; m1 = 0.2731): 1005.13 ± 0.23 kg/m3
- mass density ([1]; m1 = 0.3275): 1006.7 ± 0.23 kg/m3
- mass density ([1]; m1 = 0.3551): 1007.46 ± 0.24 kg/m3
- mass density ([1]; m1 = 0.4168): 1009.23 ± 0.24 kg/m3
- mass density ([1]; m1 = 0.4513): 1010.16 ± 0.24 kg/m3
- refractive index ([2]; Standard Abbe refractometry, m1 = 0.0533): 1.3326 ± 0.0004
- refractive index ([2]; Standard Abbe refractometry, m1 = 0.091): 1.333 ± 0.0004
- refractive index ([2]; Standard Abbe refractometry, m1 = 0.1496): 1.3337 ± 0.0004
- refractive index ([2]; Standard Abbe refractometry, m1 = 0.1913): 1.3342 ± 0.0004
- refractive index ([2]; Standard Abbe refractometry, m1 = 0.2516): 1.335 ± 0.0004
- refractive index ([2]; Standard Abbe refractometry, m1 = 0.2926): 1.3355 ± 0.0004
- refractive index ([2]; Standard Abbe refractometry, m1 = 0.3514): 1.3362 ± 0.0004
- refractive index ([2]; Standard Abbe refractometry, m1 = 0.3799): 1.3365 ± 0.0004
- refractive index ([2]; Standard Abbe refractometry, m1 = 0.4471): 1.3374 ± 0.0004
- refractive index ([2]; Standard Abbe refractometry, m1 = 0.4827): 1.3378 ± 0.0004
- molar conductivity ([3]; c1 = 0.0007166): 0.0153 ± 0.00031 S·m2/mol
- molar conductivity ([3]; c1 = 0.001486): 0.0148 ± 0.0003 S·m2/mol
- molar conductivity ([3]; c1 = 0.002275): 0.0146 ± 0.00029 S·m2/mol
- molar conductivity ([3]; c1 = 0.003892): 0.0145 ± 0.00029 S·m2/mol
- molar conductivity ([3]; c1 = 0.00566): 0.0142 ± 0.00028 S·m2/mol
- molar conductivity ([3]; c1 = 0.007383): 0.0139 ± 0.00028 S·m2/mol
- molar conductivity ([3]; c1 = 0.00904): 0.0137 ± 0.00028 S·m2/mol
- molar conductivity ([3]; c1 = 0.0116): 0.0135 ± 0.00027 S·m2/mol
- molar conductivity ([3]; c1 = 0.01431): 0.0132 ± 0.00026 S·m2/mol
- molar conductivity ([3]; c1 = 0.01747): 0.0129 ± 0.00026 S·m2/mol
- molar conductivity ([3]; c1 = 0.02104): 0.0126 ± 0.00025 S·m2/mol
- molar conductivity ([3]; c1 = 0.02475): 0.0123 ± 0.00025 S·m2/mol
- viscosity ([3]; c1 = 0.0532): 0.886 ± 0.04 mPa·s
- viscosity ([3]; c1 = 0.091): 0.891 ± 0.04 mPa·s
- viscosity ([3]; c1 = 0.1498): 0.897 ± 0.04 mPa·s
- viscosity ([3]; c1 = 0.1918): 0.902 ± 0.04 mPa·s
- viscosity ([3]; c1 = 0.2526): 0.912 ± 0.04 mPa·s
- viscosity ([3]; c1 = 0.2941): 0.921 ± 0.04 mPa·s
- viscosity ([3]; c1 = 0.3537): 0.928 ± 0.04 mPa·s
- viscosity ([3]; c1 = 0.3827): 0.936 ± 0.04 mPa·s
- viscosity ([3]; c1 = 0.4512): 0.951 ± 0.041 mPa·s
- viscosity ([3]; c1 = 0.4876): 0.957 ± 0.041 mPa·s

SMILES: CC(C)[C@H](N)C(=O)O [L-valine] + O
- mass density ([1]; m1 = 0.1173): 1000.17 ± 0.22 kg/m3
- mass density ([1]; m1 = 0.1402): 1000.77 ± 0.22 kg/m3
- mass density ([1]; m1 = 0.1894): 1002.03 ± 0.23 kg/m3
- mass density ([1]; m1 = 0.2512): 1003.59 ± 0.23 kg/m3
- mass density ([1]; m1 = 0.2973): 1004.74 ± 0.23 kg/m3
- mass density ([1]; m1 = 0.3211): 1005.32 ± 0.23 kg/m3
- mass density ([1]; m1 = 0.3841): 1006.84 ± 0.23 kg/m3
- mass density ([1]; m1 = 0.4378): 1008.11 ± 0.24 kg/m3
- refractive index ([2]; Standard Abbe refractometry, m1 = 0.1173): 1.3348 ± 0.0004
- refractive index ([2]; Standard Abbe refractometry, m1 = 0.1402): 1.3353 ± 0.0004
- refractive index ([2]; Standard Abbe refractometry, m1 = 0.1894): 1.3363 ± 0.0004
- refractive index ([2]; Standard Abbe refractometry, m1 = 0.2512): 1.3375 ± 0.0004
- refractive index ([2]; Standard Abbe refractometry, m1 = 0.2973): 1.3384 ± 0.0004
- refractive index ([2]; Standard Abbe refractometry, m1 = 0.3211): 1.3389 ± 0.0004
- refractive index ([2]; Standard Abbe refractometry, m1 = 0.3841): 1.3401 ± 0.0004
- refractive index ([2]; Standard Abbe refractometry, m1 = 0.4378): 1.341 ± 0.0004
- molar conductivity ([3]; c1 = 0.0007166): 0.0153 ± 0.00031 S·m2/mol
- molar conductivity ([3]; c1 = 0.001486): 0.0148 ± 0.0003 S·m2/mol
- molar conductivity ([3]; c1 = 0.002275): 0.0146 ± 0.00029 S·m2/mol
- molar conductivity ([3]; c1 = 0.003892): 0.0145 ± 0.00029 S·m2/mol
- molar conductivity ([3]; c1 = 0.00566): 0.0142 ± 0.00028 S·m2/mol
- molar conductivity ([3]; c1 = 0.007383): 0.0139 ± 0.00028 S·m2/mol
- molar conductivity ([3]; c1 = 0.00904): 0.0137 ± 0.00028 S·m2/mol
- molar conductivity ([3]; c1 = 0.0116): 0.0135 ± 0.00027 S·m2/mol
- molar conductivity ([3]; c1 = 0.01431): 0.0132 ± 0.00026 S·m2/mol
- molar conductivity ([3]; c1 = 0.01747): 0.0129 ± 0.00026 S·m2/mol
- viscosity ([3]; c1 = 0.1173): 0.892 ± 0.04 mPa·s
- viscosity ([3]; c1 = 0.1403): 0.899 ± 0.04 mPa·s
- viscosity ([3]; c1 = 0.1898): 0.906 ± 0.04 mPa·s
- viscosity ([3]; c1 = 0.2521): 0.916 ± 0.04 mPa·s
- viscosity ([3]; c1 = 0.2987): 0.938 ± 0.04 mPa·s
- viscosity ([3]; c1 = 0.3228): 0.943 ± 0.041 mPa·s
- viscosity ([3]; c1 = 0.3867): 0.958 ± 0.041 mPa·s
- viscosity ([3]; c1 = 0.4413): 0.979 ± 0.041 mPa·s

Reference: the NIST ThermoML archive (doi:10.1021/je900882r)
